Test results taken from US9458187B2, “Methods for treatment of inflammatory conditions using S-[4-(3-fleuro-3-methylbutyryloxy)but-2-ynyl]6α, 9α-difluoro-17α-(furan-2-yl) carbonyloxy-11β-hydroxy-16α-methyl-3-oxoandrosta-1,4-diene-17β-carbothioate” (Sun Pharma Advanced Research Company Limited, priority 2013, dated 2016).

What was measured:
[1] = system: liver glycogen deposition; assay: Liver glycogen deposition; format: in vivo, Male Sprague Dawley rats; details: 3 mg/kg intratracheal, 2 doses 24 hrs apart, adrenalectomized rats
Description: Male Sprague Dawley rats, weighing 190-220 g were bilaterally adrenalectomized and maintained on 0.9% saline solution throughout the experiment. On day 5th and 6th of adrenalectomy, animals were made into different groups, test compounds prepared in cold saline (sonicated for 30 min) were instilled intratracheally 2 doses @3 mg/kg, 24 hrs apart. At 15 hrs after the last treatment, animals were sacrificed and livers were excised and weighed. The glycogen content of the livers was determined by anthrone method. Briefly, a weighed quantity of liver tissue was homogenized with 5% trichloroacetic acid, supernatant mixed with ethanol and kept overnight for precipitation. The glycogen thus extracted was estimated as glucose generated after acid hydrolysis by addition of anthrone reagent at 620 nm. Glycogen content was expressed as mg/100 g liver.

[2] = system: liver glycogen deposition; assay: Liver glycogen deposition; format: in vivo, Male Sprague Dawley rats; details: 3 mg/kg intratracheal, 2 doses 24 hrs apart, adrenalectomized rats; remark: listed apart in the source
croton oil ear edema = assay: Croton oil ear edema; format: in vivo, Mice (male, CD-1); details: for Inhibition of ear edema (%): 1.6 μg, applied to ear 2 hrs before croton oil
Description: Mice (male, CD-1) were made into different groups. A method similar to one reported in the literature was used. Test compounds were dissolved in pyridine-water-acetone (4:2:14) solution 10 μl of this solution of compound or vehicle solution was applied to the left ear of the mice. The right ear of each mouse was applied simultaneously with 10 μl of pyridine: water: acetone (4:2:14) solution. After 2 hrs of compound or vehicle application, 10 μl of croton oil solution was applied to the left ear of all animals. After 6 hr of croton oil treatment the animals were sacrificed; ears were excised and weighed separately.

[3] = target: T1, Human Glucocorticoid receptor (Homo sapiens, UniProt P04150); assay: Human glucocorticoid receptor binding (in vitro), [3H]dexamethasone radioligand; details: at 0.1 μM
T1 construct: expressed in transfected cells; host or cells: human HeLa cells
T1 sequence (P04150 1-777): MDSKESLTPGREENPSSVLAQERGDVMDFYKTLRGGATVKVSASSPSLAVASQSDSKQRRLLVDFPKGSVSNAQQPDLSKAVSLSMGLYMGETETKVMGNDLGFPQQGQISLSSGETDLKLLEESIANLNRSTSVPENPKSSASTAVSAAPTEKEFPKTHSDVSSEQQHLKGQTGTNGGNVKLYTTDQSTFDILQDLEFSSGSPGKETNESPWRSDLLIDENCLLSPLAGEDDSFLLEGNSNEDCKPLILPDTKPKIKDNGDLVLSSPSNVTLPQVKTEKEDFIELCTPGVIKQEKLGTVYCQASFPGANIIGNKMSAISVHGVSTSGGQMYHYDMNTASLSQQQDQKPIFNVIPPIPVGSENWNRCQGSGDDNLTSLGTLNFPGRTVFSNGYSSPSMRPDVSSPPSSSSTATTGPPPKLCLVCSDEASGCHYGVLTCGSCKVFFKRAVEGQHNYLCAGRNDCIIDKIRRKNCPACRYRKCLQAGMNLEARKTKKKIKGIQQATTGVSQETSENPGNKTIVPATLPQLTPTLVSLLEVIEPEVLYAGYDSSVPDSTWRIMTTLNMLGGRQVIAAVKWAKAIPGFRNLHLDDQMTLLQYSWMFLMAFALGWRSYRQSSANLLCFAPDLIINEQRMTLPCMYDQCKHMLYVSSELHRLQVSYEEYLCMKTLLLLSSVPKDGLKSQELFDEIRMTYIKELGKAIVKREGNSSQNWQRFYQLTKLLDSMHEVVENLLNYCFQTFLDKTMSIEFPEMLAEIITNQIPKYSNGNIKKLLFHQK
Description: The activity of test compounds on glucocorticoid receptor was assessed using radioligand binding assays.
The % inhibition was evaluated using a single concentration of test compound and the corresponding radiolabeled ligand. Results are presented as the percent inhibition of specific binding. The values are average of duplicate determinations for each concentration.

cotton pellet granuloma = assay: Cotton pellet granuloma test; format: in vivo, SD rats; details: 100 mcg/pellet
Description: SD rats were used for assessing anti-inflammatory activity of test compound using cotton pellet granuloma method. Sterilized cotton pellets weighing 20 mg were prepared. Test compounds were dissolved in acetone so as to get the required quantity for each cotton pellet in 500 μl. Different pellets were impregnated with 500 μl of acetone to contain required quantity of test compounds and allowed to dry. Vehicle control pellets were impregnated with 500 μl acetone.
Rats were made into different groups. Two cotton pellets were surgically implanted into the scapular region of each rat. On sixth day of such implantation, pellets along with granuloma were taken out. Thymus gland was also separated from each animal and weighed. The pellets with granuloma were dried for 20 hrs at 60° C. and weighed. Mean weights of dry granuloma and thymus, body weight gain/100 g body weights were calculated.

[4] = system: skin atrophy and systemic side effects; assay: Skin atrophy and systemic side effects on topical application; format: in vivo, Male SD rats; details: dermal, daily 14 days
Text: Male SD rats were lightly anesthetized with isoflurane. Bilaterally paired sites were marked on the back, one on each side of the flank. One of the sites was applied with an appropriate dose of compound of the present invention and fluticasone propionate dissolved in the acetone, daily for a period of 14 days. Contralateral site served as solvent treated controls and received acetone. Body weights were monitored on 0-14 days. On day 15, twenty-four hours after the last applications, blood was collected from the tail vein to determine total and differential blood cell count. The animals were euthanized and full-thickness skin from shaved area was punched to get 15 mm diameter plugs. The subcutaneous fat and muscle was removed and the punched plug was weighed. Thymus weights of each animal were also determined as a marker of systemic corticosteroid activity

[5] = Sephadex-induced lung edema; format: in vivo, SD rats; details: Sprague-Dawley, rat, thymus, other: intratracheal; i.t., 24 hrs and 2 hrs prior to Sephadex; read-out: ED50 Thymus involution
Description: (§1) Sephadex® G-200 was prepared in sterile saline (10 mg/ml) and allowed to swell for at least 3 days at room temperature. Test compounds were administered intratracheally at 24 hrs and 2 hrs prior to intratracheal administration of Sephadex® (5 mg/kg) under light ether anesthesia. Vehicle control animals were administered vehicle instead of Sephadex®. At 24 hr after Sephadex® instillation, lung and thymus were excised from individual animals and weighed. Wet weights of lungs and thymus were corrected for 100 g of initial body weight. The percentage increase in lung weight caused by Sephadex® and its inhibitions by the compounds, were calculated. The percentage inhibitions of thymus compared to vehicle control group were also calculated

[6] = system: Sephadex-induced lung edema; assay: Sephadex-induced lung edema; format: in vivo, SD rats; details: Rattus norvegicus; i.t., 24 hrs and 2 hrs prior to Sephadex; read-out: ED50 Lung edema inhibition
Description: as §1

[7] = system: ovalbumin-induced increase in intranasal pressure; assay: Ovalbumin-induced increase in intranasal pressure; format: in vivo, guinea pigs; details: intranasal instillation 24 hr and 2 hr prior to ovalbumin challenge; FIG. 2
Description: Animals sensitized with ovalbumin as described above were used for experiments determining intranasal pressure. Intranasal instillation of compound of formula I, fluticasone propionate or placebo was done 24 hr and 2 hr prior to challenge with ovalbumin. The nasopharynx was catheterized with a PE cannula, one end of which was attached to pressure transducer and other to the nebulizer. Ovalbumin (5%) was nebulized into the nasal cavity for 10 min. The changes in intranasal pressure were recorded for following 45 min and differential pressure (dP) was calculated.

## C[C@@H]1C[C@H]2[C@@H]3CCC4=CC(=O)C=C[C@]4(C)[C@@]3(Cl)[C@@H](O)C[C@]2(C)[C@@]1(OC(=O)c1ccco1)C(=O)CCl [Mometasone furoate]
[1]
  Glycogen content: 1117.32 mg/100 g liver
[2]
  % Inhibition of thymus: 43.51%

## C[C@@H]1CC2C3C[C@H](F)C4=CC(=O)C=C[C@]4(C)[C@@]3(F)[C@@H](O)C[C@]2(C)[C@@]1(OC(=O)c1ccco1)C(=O)SCC#CCO (stereo partly drawn) [formula II, S-(4-Hydroxy-but-2-ynyl)6α,9α-difluoro-17α-(furan-2-yl)carbonyloxy-11β-hydroxy-16α-methyl-3-oxoandrosta-1,4-diene-17β-carbothioate]
Croton oil ear edema; compared with compound of the present invention
  potency in topical in vivo anti-inflammatory models such as croton oil ear edema: significantly less potent

## C[C@@H]1CC2C3C[C@H](F)C4=CC(=O)C=C[C@]4(C)[C@@]3(F)[C@@H](O)C[C@]2(C)[C@@]1(OC(=O)c1ccco1)C(=O)O (stereo partly shown) [formula III]
[3]
  inhibition at 0.1 µM: 2%

## CCC(=O)O[C@]1(C(=O)SCF)[C@H](C)C[C@H]2[C@@H]3C[C@H](F)C4=CC(=O)C=C[C@]4(C)[C@@]3(F)[C@@H](O)C[C@@]21C [Fluticasone propionate]
Croton oil ear edema
  Inhibition of ear edema (%): 81.09%
Cotton pellet granuloma
  Mean % Inhibition of Granuloma A: 66.04%
  Thymus wt. (% Decrease) B: 73.56%
[4]; 6 μg/site
  % Body Weight Gain: 68.1%
  % Inhibition Lymphocytes: 31.7%
  % Inhibition Neutrophils: 25.8%
  % Inhibition Skin weight: 25.3%
  % Inhibition Thymus: 2.0%
  % Inhibition Total leukocyt: 31.4%
[4]; 18 μg/site
  % Body Weight Gain: 67.4%
  % Inhibition Lymphocytes: 15.9%
  % Inhibition Neutrophils: 24.5%
  % Inhibition Skin weight: 20.8%
  % Inhibition Thymus: 5.4%
  % Inhibition Total leukocyt: 17.5%
[4]; 60 μg/site
  % Body Weight Gain: 61.9%
  % Inhibition Lymphocytes: 15.6%
  % Inhibition Neutrophils: 14.5%
  % Inhibition Skin weight: 27.9%
  % Inhibition Thymus: 23.0%
  % Inhibition Total leukocyt: 15.2%
[4]; 180 μg/site
  % Body Weight Gain: 42.5%
  % Inhibition Lymphocytes: 34.1%
  % Inhibition Neutrophils: 24.6%
  % Inhibition Skin weight: 30.0%
  % Inhibition Thymus: 55.0%
  % Inhibition Total leukocyt: 32.7%
[5]
  ED50 at 24 h: 0.36 mg/kg
[6]
  ED50: 0.086 mg/kg
[1]
  Glycogen content: 1514.65 mg/100 g liver
[7]
  inhibition of intranasal pressure: equivalent inhibition
[2]
  % Inhibition of thymus: 70.17%

## CCCC1O[C@@H]2C[C@H]3[C@@H]4CCC5=CC(=O)C=C[C@]5(C)[C@H]4[C@@H](O)C[C@]3(C)[C@]2(C(=O)CO)O1 (stereo partly shown) [Budesonide]
[5]
  ED50 at 24 h: 0.68 mg/kg
[1]
  Glycogen content: 552.77 mg/100 g liver
[2]
  % Inhibition of thymus: 65.02%

## CC(C)C(=O)OCC(=O)[C@@]12O[C@H](C3CCCCC3)O[C@@H]1C[C@H]1[C@@H]3CCC4=CC(=O)C=C[C@]4(C)[C@H]3[C@@H](O)C[C@@]12C [Ciclesonide]
Cotton pellet granuloma
  Mean % Inhibition of Granuloma A: 63.38%
  Thymus wt. (% Decrease) B: 15.16%
[5]
  ED50 at 24 h: 3.13 mg/kg
[6]
  ED50: 0.388 mg/kg
[1]
  Glycogen content: 263.96 mg/100 g liver
[2]
  % Inhibition of thymus: 61.34%

## C[C@@H]1C[C@H]2[C@@H]3CCC4=CC(=O)C=C[C@]4(C)[C@@]3(F)[C@@H](O)C[C@]2(C)[C@@]1(O)C(=O)CO [Dexamethasone]
Croton oil ear edema
  Inhibition of ear edema (%): 50.05%
